Reference: US9193689B2, “3-aryl-5-substituted-isoquinolin-1-one compounds and their therapeutic use” (INSTITUTE OF CANCER RESEARCH: ROYAL CANCER HOSPITAL (THE), priority 2012, dated 2015)

target: TNKS1 (Homo sapiens, UniProt O95271); test: TNKS1/PARP Biochemical Assay (TNKS1); conditions: not given

`CN1CCN(c2ccc(-c3cc4c(Cl)cccc4c(=O)[nH]3)cn2)CC1` [IQ-002] and `CC(C)(C)OC(=O)N1CCN(c2ccc(-c3cc4c(Cl)cccc4c(=O)[nH]3)cn2)CC1` [IQ-136] cannot be ordered by IC50: 0.039 µM for the first, < 0.5 µM for the second.

`CN(CC1CCN(C(=O)OC(C)(C)C)CC1)S(=O)(=O)c1ccc(-c2cc3c(Cl)cccc3c(=O)[nH]2)cc1` [IQ-114] and `CN(CC1CCN(C(=O)OC(C)(C)C)CC1)C(=O)c1ccc(-c2cc3c(Cl)cccc3c(=O)[nH]2)cc1` [IQ-145] cannot be ordered by IC50: < 0.5 µM for the first, < 0.5 µM for the second.

`Cc1cccc2c(=O)[nH]c(-c3ccc(S(=O)(=O)N(C)CC4CCNCC4)cc3)cc12` [IQ-115] and `CN(CC1CCNCC1)S(=O)(=O)c1ccc(-c2cc3c(Cl)cccc3c(=O)[nH]2)cc1` [IQ-116] cannot be ordered by IC50: < 0.02 µM for the first, < 0.05 µM for the second.

`Cc1cccc2c(=O)[nH]c(-c3ccc(S(=O)(=O)N(C)CCN(C)C)cc3)cc12` [IQ-117] and `Cc1cccc2c(=O)[nH]c(-c3ccc(S(=O)(=O)N(C)CCO)cc3)cc12` [IQ-120] cannot be ordered by IC50: < 0.02 µM for the first, < 0.02 µM for the second.

`Cc1cccc2c(=O)[nH]c(-c3ccc(S(=O)(=O)N(C)CC4CCOCC4)cc3)cc12` [IQ-118] and `Cc1cccc2c(=O)[nH]c(-c3ccc(S(=O)(=O)N4CCC(N(C)C)CC4)cc3)cc12` [IQ-125] cannot be ordered by IC50: < 0.02 µM for the first, < 0.02 µM for the second.

`Cc1cccc2c(=O)[nH]c(-c3ccc(S(=O)(=O)N(C4CC4)C4CCN(C)CC4)cc3)cc12` [IQ-119] and `Cc1cccc2c(=O)[nH]c(-c3ccc(CC(=O)N(C)C4CCN(C)CC4)cc3)cc12` [IQ-176] cannot be ordered by IC50: < 0.5 µM for the first, < 0.02 µM for the second.

`CN1CCN(S(=O)(=O)c2ccc(-c3cc4c(Cl)cccc4c(=O)[nH]3)cc2)CC1` [IQ-122] and `CN(C)C1CCN(S(=O)(=O)c2ccc(-c3cc4c(Cl)cccc4c(=O)[nH]3)cc2)CC1` [IQ-126] cannot be ordered by IC50: < 0.5 µM for the first, < 0.5 µM for the second.

`Cc1cccc2c(=O)[nH]c(-c3ccc(S(=O)(=O)N4CCNCC4)cc3)cc12` [IQ-123] and `Cc1cccc2c(=O)[nH]c(-c3ccc(S(=O)(=O)N4CCN(C(=O)OC(C)(C)C)CC4)cc3)cc12` [IQ-140] cannot be ordered by IC50: < 0.02 µM for the first, < 0.5 µM for the second.

`Cc1cccc2c(=O)[nH]c(-c3ccc(OCCN4CCCC4)cc3)cc12` [IQ-134] and `Cc1cccc2c(=O)[nH]c(-c3ccc(CN4CC(O)C4)cc3)cc12` [IQ-167] cannot be ordered by IC50: < 0.05 µM for the first, < 0.02 µM for the second.

`CN1CCN(Cc2ccc(-c3cc4c(F)cc(F)cc4c(=O)[nH]3)cc2)CC1` [IQ-138] and `O=c1[nH]c(-c2ccc(CN3CCNCC3)cc2)cc2c(F)cc(F)cc12` [IQ-158] cannot be ordered by IC50: < 0.05 µM for the first, < 0.05 µM for the second.

`Cc1cccc2c(=O)[nH]c(-c3ccc(CN4CCN(C(=O)OC(C)(C)C)CC4C)cc3)cc12` (stereo not drawn) [IQ-142] and `Cc1cccc2c(=O)[nH]c(-c3ccc(CN4CCN(C(=O)OC(C)(C)C)C(C)C4)cc3)cc12` (stereo not drawn) [IQ-143] cannot be ordered by IC50: < 0.5 µM for the first, < 0.5 µM for the second.

`Cc1ccc(S(=O)(=O)N2CCN(C(C)(C)c3ccc(-c4cc5c(C)cccc5c(=O)[nH]4)cc3)CC2)cc1` [IQ-148] and `Cc1cccc2c(=O)[nH]c(-c3ccc(CC(=O)N4CCN(C)CC4)cc3)cc12` [IQ-175] cannot be ordered by IC50: < 0.5 µM for the first, < 0.02 µM for the second.

`CC(C)(C)OC(=O)N1CCN(Cc2ccc(-c3cc4c(F)cc(F)cc4c(=O)[nH]3)cc2)CC1` [IQ-154] and `O=C(c1ccc(-c2cc3c(F)cc(F)cc3c(=O)[nH]2)cc1)N1CCN(CCO)CC1` [IQ-228, 5,7-Difluoro-3-{4-[4-(2-hydroxy-ethyl)-piperazine-1-carbonyl]-phenyl}-2H-isoquinolin-1-one] cannot be ordered by IC50: < 0.5 µM for the first, < 0.05 µM for the second.

`Cc1cccc2c(=O)[nH]c(-c3ccc(CN4CCN(CC5CC5)CC4)nc3)cc12` [IQ-161] and `Cc1cccc2c(=O)[nH]c(-c3ccc(CN4CCN(C(=O)C5CC5)CC4)nc3)cc12` [IQ-162] cannot be ordered by IC50: < 0.5 µM for the first, < 0.02 µM for the second.

`Cc1cccc2c(=O)[nH]c(-c3ccc(CN4CCNC(=O)C4)cc3F)cc12` [IQ-166] and `Cc1cccc2c(=O)[nH]c(-c3ccc(CN4CC(O)C4)c(F)c3)cc12` [IQ-169] cannot be ordered by IC50: < 0.5 µM for the first, < 0.05 µM for the second.

`Cc1cccc2c(=O)[nH]c(-c3ccc(Cn4ccnc4C)cc3)cc12` [IQ-168] and `Cc1cccc2c(=O)[nH]c(-c3ccc(Cn4ccnc4)cc3)cc12` [IQ-180] cannot be ordered by IC50: < 0.02 µM for the first, < 0.02 µM for the second.

`Cc1cc(F)cc2c(=O)[nH]c(-c3ccc(CN4CC(O)C4)cc3)cc12` [IQ-170, 7-Fluoro-3-[4-(3-hydroxy-azetidin-1-ylmethyl)-phenyl]-5-methyl-2H-isoquinolin-1-one] and `CNC1CN(Cc2ccc(-c3cc4c(C)cc(F)cc4c(=O)[nH]3)cc2)C1` [IQ-178] cannot be ordered by IC50: < 0.02 µM for the first, < 0.02 µM for the second.

`Cc1cccc2c(=O)[nH]c(-c3ccc(Cn4cncn4)cc3)cc12` [IQ-171] and `Cc1cccc2c(=O)[nH]c(-c3ccc(Cn4cccn4)cc3)cc12` [IQ-182] cannot be ordered by IC50: < 0.05 µM for the first, < 0.02 µM for the second.

`Cc1cccc2c(=O)[nH]c(-c3ccc(CN4CC(C)(O)C4)cc3)cc12` [IQ-172] and `CNC1CN(Cc2ccc(-c3cc4c(C)cccc4c(=O)[nH]3)cc2)C1` [IQ-177] cannot be ordered by IC50: < 0.02 µM for the first, < 0.02 µM for the second.

`Cc1cccc2c(=O)[nH]c(-c3ccc(CN4CCC(N(C)C)C4)cc3)cc12` (stereo not drawn) [IQ-173] and `Cc1cccc2c(=O)[nH]c(-c3ccc(C(=O)N(C)C4CCN(C)C4)cc3)cc12` (stereo not drawn) [IQ-196] cannot be ordered by IC50: < 0.05 µM for the first, < 0.02 µM for the second.

`Cc1cccc2c(=O)[nH]c(-c3ccc(Cn4c(C)nc5ccccc54)cc3)cc12` [IQ-179] and `Cc1cccc2c(=O)[nH]c(-c3ccc(Cn4cnc5ccccc54)cc3)cc12` [IQ-181] cannot be ordered by IC50: < 0.5 µM for the first, < 0.5 µM for the second.

`Cc1cccc2c(=O)[nH]c(-c3ccc(Cn4cccc4)cc3)cc12` [IQ-184] and `Cc1cccc2c(=O)[nH]c(-c3ccc(CC(=O)N4CC(O)C4)cc3)cc12` [IQ-214] cannot be ordered by IC50: < 0.5 µM for the first, < 0.02 µM for the second.

`Cc1cc(F)cc2c(=O)[nH]c(-c3ccc(C(C)(C)N4CC(O)C4)cc3)cc12` [IQ-185] and `Cc1cc(F)cc2c(=O)[nH]c(-c3ccc(C(C)(C)C(=O)N4CC(O)C4)cc3)cc12` [IQ-218] cannot be ordered by IC50: < 0.05 µM for the first, < 0.05 µM for the second.

`Cc1cc(F)cc2c(=O)[nH]c(-c3ccc(C(=O)N(C)C4CCNC4)cc3)cc12` (stereo not drawn) [IQ-186] and `Cc1cc(F)cc2c(=O)[nH]c(-c3ccc(C(=O)N(C)C4CCNCC4)cc3)cc12` [IQ-213] cannot be ordered by IC50: < 0.5 µM for the first, < 0.02 µM for the second.

`COCCN(CCOC)C(=O)c1ccc(-c2cc3c(C)cccc3c(=O)[nH]2)cc1` [IQ-187] and `Cc1cccc2c(=O)[nH]c(-c3ccc(C(=O)N(C)C4CN(C)C4)cc3)cc12` [IQ-199] cannot be ordered by IC50: < 0.05 µM for the first, < 0.02 µM for the second.

`Cc1cccc2c(=O)[nH]c(-c3ccc(C(=O)N4CC(O)C4)cc3)cc12` [IQ-188] and `Cc1cccc2c(=O)[nH]c(-c3ccc(C(=O)N4CC(N(C)C)C4)cc3)cc12` [IQ-202] cannot be ordered by IC50: < 0.02 µM for the first, < 0.5 µM for the second.

`Cc1ccc(F)c2c(=O)[nH]c(-c3ccc(C(=O)N4CCN(C)CC4)cc3)cc12` [IQ-189] and `CN1CCN(C(=O)c2ccc(-c3cc4c(F)ccc(F)c4c(=O)[nH]3)cc2)CC1` [IQ-226] cannot be ordered by IC50: < 0.02 µM for the first, < 0.05 µM for the second.

`Cc1cc(F)cc2c(=O)[nH]c(-c3ccc(C(=O)N4CCN(CCO)CC4)cc3)cc12` [IQ-192] and `Cc1ccc(F)c2c(=O)[nH]c(-c3ccc(C(=O)N4CCN(CCO)CC4)cc3)cc12` [IQ-193] cannot be ordered by IC50: < 0.02 µM for the first, < 0.02 µM for the second.

`Cc1cccc2c(=O)[nH]c(-c3cc(F)c(C(=O)N4CC(O)C4)c(F)c3)cc12` [IQ-194] and `Cc1cc(F)cc2c(=O)[nH]c(-c3ccc(CC(=O)N4CC(O)C4)cc3)cc12` [IQ-215] cannot be ordered by IC50: < 0.02 µM for the first, < 0.02 µM for the second.

`Cc1cc(F)cc2c(=O)[nH]c(-c3ccc(C(=O)N(C)C4CCN(C)CC4)cc3)cc12` [IQ-195] and `Cc1cc(F)cc2c(=O)[nH]c(-c3ccc(C(=O)N(C)C4CCN(C)C4)cc3)cc12` (stereo not drawn) [IQ-197] cannot be ordered by IC50: < 0.02 µM for the first, < 0.02 µM for the second.

`Cc1cccc2c(=O)[nH]c(-c3ccc(C(=O)N(C)Cc4nccn4C)cc3)cc12` [IQ-198] and `Cc1cccc2c(=O)[nH]c(-c3ccc(C(=O)N(C)CC4CCN(C)C4)cc3)cc12` (stereo not drawn) [IQ-204] cannot be ordered by IC50: < 0.02 µM for the first, < 0.02 µM for the second.

`Cc1cccc2c(=O)[nH]c(-c3ccc(C(=O)N(C)C4CCNC4)cc3)cc12` (stereo not drawn) [IQ-200] and `Cc1cccc2c(=O)[nH]c(-c3ccc(C(=O)N(C)C4CCCN(C)C4)cc3)cc12` (stereo not drawn) [IQ-211] cannot be ordered by IC50: < 0.02 µM for the first, < 0.02 µM for the second.

`Cc1cc(F)cc2c(=O)[nH]c(-c3ccc(C(=O)N(C)C4CN(C)C4)cc3)cc12` [IQ-201] and `Cc1cc(F)cc2c(=O)[nH]c(-c3ccc(C(=O)N(C)C4CCCN(C)C4)cc3)cc12` (stereo not drawn) [IQ-212] cannot be ordered by IC50: < 0.05 µM for the first, < 0.05 µM for the second.

`Cc1cc(F)cc2c(=O)[nH]c(-c3ccc(C(=O)N4CC(N(C)C)C4)cc3)cc12` [IQ-203] and `Cc1cc(F)cc2c(=O)[nH]c(-c3ccc(C(=O)N(C)CC4CCN(C)CC4)cc3)cc12` [IQ-208] cannot be ordered by IC50: < 0.05 µM for the first, < 0.02 µM for the second.

`Cc1cccc2c(=O)[nH]c(-c3ccc(C(=O)N(C)C4CCN(C(C)C)CC4)cc3)cc12` [IQ-206] and `Cc1cccc2c(=O)[nH]c(-c3ccc(C(=O)N(C)CC4(C)CCN(C)C4)cc3)cc12` (stereo not drawn) [IQ-209] cannot be ordered by IC50: < 0.05 µM for the first, < 0.02 µM for the second.

`Cc1cc(F)cc2c(=O)[nH]c(-c3ccc(C(=O)N(C)CC4(C)CCN(C)C4)cc3)cc12` (stereo not drawn) [IQ-210] and `CN1CCN(C(=O)c2ccc(-c3cc4c(F)cc(F)cc4c(=O)[nH]3)cc2)CC1` [IQ-227] cannot be ordered by IC50: < 0.02 µM for the first, < 0.02 µM for the second.

`Cc1cccc2c(=O)[nH]c(-c3ccc(NC(CO)CO)nc3)cc12` [IQ-219] and `CN(C)CCOc1ccc(-c2cc3c(C#CCCO)cccc3c(=O)[nH]2)cc1` [IQ-236, 3-[4-(2-Dimethylaminoethoxy)phenyl]-5-(4-hydroxybut-1-ynyl)-2H-isoquinolin-1-one] cannot be ordered by IC50: < 0.02 µM for the first, < 0.5 µM for the second.

`O=C(c1ncc(-c2cc3c(F)ccc(F)c3c(=O)[nH]2)cn1)N1CCN(CC2CC2)CC1` [IQ-229] and `CN1CCN(Cc2ccc(-c3cc4c(C#CCO)cccc4c(=O)[nH]3)cc2)CC1` [IQ-231] cannot be ordered by IC50: < 0.5 µM for the first, < 0.05 µM for the second.

`COCC#Cc1cccc2c(=O)[nH]c(-c3ccc(OCCN(C)C)cc3)cc12` [IQ-234] was tested, and the IC50 was < 0.5 µM.

system: Wnt activity in DLD1-Wnt-Luc cells; test: Wnt-Luciferase Reporter Assay; conditions: read-out: Wnt IC50

Compared with `CN1CCN(c2ccc(-c3cc4c(Cl)cccc4c(=O)[nH]3)cn2)CC1` [IQ-002], `CN(C)Cc1ccc(-c2cc3ccccc3c(=O)[nH]2)cc1` [REF-4, reference compound] is higher in IC50: 0.179 µM for the first, > 10 µM for the second. The first is the more potent here.

same assay, conditions: read-out: Wnt IC50, DLD1-Wnt-Luc cells

`CN(C)Cc1ccc(-c2cc3c(F)cccc3c(=O)[nH]2)cc1` [IQ-032] and `CCc1cccc2c(=O)[nH]c(-c3ccc(CN4CCN(C(=O)OC(C)(C)C)CC4)cc3)cc12` [IQ-151, 4-[4-(5-Ethyl-1-oxo-1,2-dihydro-isoquinolin-3-yl)-benzyl]-piperazine-1-carboxylic acid tert-butyl ester] cannot be ordered by IC50: < 5 µM for the first, < 5 µM for the second.
